# Where two headings read alike, the source gives them in different places.
# Experiments:
# [1] = system: carbohydrate exposure (CE); experiment: Glucose supply and insulin demand model: effect on carbohydrate exposure; assay type: in vivo, human; design: scale not given here; details: Metformin 2000 mg, Glyburide 10 mg, Pioglitazone 45 mg, Insulin Glargine 0.5 U/kg daily; pH encapsulated glucose 3.0 grams/day
# Description: (§1) Therapeutic targets of the glucose supply (CE, 1+2; HGU, 3; GNG, 4; IR, 5) and insulin demand (PGU, 6; PIE, 7) model are presented in FIG. 1. To identify quantitative differences between antidiabetic agents on CE, HGU, GNG, IR, PGU, and PIE, multidatabase searches (Cochrane Central Register of Controlled Trials and Cochrane Register of Systematic Reviews, Embase, OVID Healthstar, OVID Journals, and PubMed) were conducted cross-referencing title and keywords for all selected antidiabetic therapies and their respective targets.
# (§2) Alpha-glucosidase, biguanide, and thiazolidinedione (TZD) studies with long-term, pre-post design at maximal therapeutic doses were identified to simulate chronic administration. To maintain consistency with cardiovascular trials and accommodate known influences of hyperglycemia and hyperinsulinemia on the respective targets,^13-16 studies including patients with HbA1c in the range of 6-8% and body mass index (BMI)≧30 kg/m^2 were preferentially selected. In the event multiple studies were available to identify the effect of an agent on a therapeutic target, the mean percent change was used. Conversely, if there was evidence that an agent would elicit a response on a given target but no mathematical representation of the difference was provided, conservative estimates consistent with the scale of other agents and the degree of glucose regulation were instituted to best represent the expected effect. Individual agents were then characterized for the 24 h percent change from baseline for CE, HGU, GNG, IR, PGU, and PIE. Carbohydrate exposure was determined as the combined effect of caloric intake and intestinal carbohydrate absorption. Hepatic glucose uptake was defined as the reported value obtained immediately following oral glucose loading. Because GNG is known to be enhanced in the fasting state and persistent throughout the prandial phase,^17,18 effect was determined during the fasting state and considered equivalent throughout the prandial phase. For studies evaluating fasting glucose and insulin concentrations, an index of IR was determined by homeostasis model assessment of insulin resistance (HOM-AIR) using the following formula: Insulin (mU/liter)×Glucose (mmol)/22.5.^19 To account for known differences in secretory and uptake dynamics during the fasting and prandial phases, studies identifying the impact of therapies during the fasting state (or simulated hyperinsulinemic euglycemic clamp) and prandial phase (or oral glucose load insulin clamp) were specifically identified for changes in PGU (glucose infusion rate) and PIE (insulin concentrations) according to Equation (1): […]
# (§3) For sulfonylurea and insulin-based therapies, insulin concentration time profiles were obtained and superimposed on the baseline 24 h insulin concentration time profile of T2D patients (FIG. 2) to calculate the increase in PIE (trapezoidal rule).^20 Calculated increases in incremental and cumulative insulin exposure were correlated to known insulin dose-response effects on HGU, GNG, and PGU (FIG. 3),^18,21 according to the equation y=mx+b. Twenty-four-hour increases in HGU, PGU, and PIE and decreases in GNG were compared to baseline values and percent change calculated.
# (§4) With alpha-glucosidase, biguanide, TZD, secretagogue, and insulin therapies characterized for their respective impacts on CE, HGU, GNG, IR, PIE, and PGU, identification of their effect on the glucose supply (decrease in CE, increase in HGU, decrease in GNG, decrease in IR) and insulin demand (increase in PIE, increase in PGU) dynamic was assessed according to Equation (2), which provides the SD ratio according to the invention: […]
# [2] = system: hepatic gluconeogenesis (GNG); experiment: Glucose supply and insulin demand model: effect on hepatic gluconeogenesis; assay type: in vivo, human
# Description: as §1, §2, §3, §4
# [3] = system: peripheral insulin exposure (PIE); experiment: Glucose supply and insulin demand model: effect on peripheral insulin exposure; assay type: in vivo, human
# Description: as §1, §2, §3, §4
# Twenty-four-hour steady state insulin concentration time curves were superimposed on the baseline secretion profile of the standard T2D patient.
# caloric intake = details: Lee and Morley, T2D, cited from earlier work
# [4] = system: intestinal glucose transfer; details: metformin 50 mg/kg, mice; cited from earlier work
# [5] = system: brush border vesicles isolated from rabbit intestine; details: 5 mM metformin; cited from earlier work
# [6] = system: intestinal glucose utilization; details: cited from earlier work
# [7] = system: hepatic glucose uptake (HGU); details: Iozzo; metformin 2000 mg daily, rosiglitazone 8 mg daily; 26 weeks; PET [18F]FDG, insulin clamp; cited from earlier work
# [8] = system: hepatic gluconeogenesis (GNG); details: metformin 2550 mg daily, cited from earlier work
# [9] = system: peripheral glucose uptake (PGU); details: cited from earlier work
# [10] = system: peripheral insulin exposure (PIE); details: cited from earlier work
# [11] = Metformin 2000 mg, Glyburide 10 mg, Pioglitazone 45 mg, Insulin Glargine 0.5 U/kg daily, pH encapsulated glucose 3.0 grams/day
compound,measurement,setting,value
CN(C)C(=N)N=C(N)N [Metformin],Score CE,[1],0.15
same,Score HGI,[2]; [11],0.35
same,GNG inhibition,"[2]; adjustment factor = decrease in hepatic gluconeogenesis at the therapeutic dose of Table 1, T2D",0.35
same,Score PIE,[3]; [11],−0.10
same,PIE,"[3]; adjustment factor = increase in peripheral insulin exposure at the therapeutic dose of Table 1, T2D",−0.10
same,reduction of total caloric intake during the 30 min period,caloric intake; metformin 850 mg for 3 days,30%
same,reduction of total caloric intake during the 30 min period,caloric intake; metformin 1700 mg for 3 days,50%
same,reduction of net glucose transfer in the serosal fluid,[4],12%
same,glucose uptake,[5],nominal decrease in glucose uptake
same,increase in glucose utilization in mucosa from different regions of the intestine,"[6]; Bailey, metformin 250 mg/kg^−1, normal rats, intravenous glucose tolerance test",30-60%
same,increase in glucose utilization in the jejunum,"[6]; Penicaud, metformin 350 mg/kg^−1/day^−1 for 8 days, obese fa/fa rats",39%
same,"increase in HGU, placebo-subtracted value",[7],+0.008±0.004 μmol/kg^−1/min^−1
same,"rate of hepatic GNG, ^2H2O method","[8]; Hundal, 3 months, before 0.42±0.04",0.28±0.03 mmol/m^−2/min^−1
same,"rate of hepatic GNG, nuclear magnetic resonance method","[8]; Hundal, 3 months, before 0.59±0.03",0.18±0.03 mmol/m^−2/min^−1
same,"reduction of rate of hepatic GNG, ^2H2O method","[8]; Hundal, 3 months",33%
same,"reduction of rate of hepatic GNG, nuclear magnetic resonance method","[8]; Hundal, 3 months",36%
same,reduction of rate of plasma lactate to plasma glucose conversion (GNG),"[8]; Stumvoll, 16 weeks, fasted T2D",37%
same,rate of plasma lactate to plasma glucose conversion (GNG),"[8]; Stumvoll, 16 weeks, before 7.3±0.7",4.6±0.6 μmol/kg^−1/min^−1
same,increase in glucose infusion rate,"[9]; Inzucchi, metformin 2000 mg daily, 12 weeks, euglycemic hyperinsulinemic clamp at 100 mg/dl",13%
same,glucose infusion rate,"[9]; Inzucchi, metformin 2000 mg daily, 12 weeks, euglycemic hyperinsulinemic clamp, before 240",272 mg/m^−2/min^−1
same,rate of plasma glucose turnover,"[9]; Stumvoll, metformin, before 2.8±0.2",2.0±0.2 mg/kg^−1/min^−1
same,systemic glucose disposal,"[9]; Stumvoll, metformin",did not change
same,glucose rate of disappearance,"[9]; Tiikkainen, metformin 2000 mg daily, 16 weeks, clamp at 144 mg/dl, before 0.09±0.01, unchanged",0.10±0.01 mg/kg^−1/min^−1
same,mean fasting and postprandial plasma insulin concentrations,"[10]; Inzucchi, metformin 2000 mg daily, 12 weeks","slightly, but not significantly reduced"
same,FPI,"[10]; Iozzo, metformin, before 63±12",43.0 ± 5.0 pmol/L
same,reduction of FPI,"[10]; Iozzo, metformin",~30%
same,FPI,"[10]; Sharma, metformin 2000 mg daily, 16 weeks, before 76.0±54.5",69.0 ± 45.0 pmol/L
same,reduction in FPI,"[10]; Sharma, metformin 2000 mg daily, 16 weeks",~10%
same,FPI,"[10]; Stumvoll, metformin, before 12±5",10 μU/ml
same,reduction of FPI,"[10]; Stumvoll, metformin",17%
same,FPI,"[10]; Tiikkainen, metformin 2000 mg daily, 16 weeks, before 13",9 mU/liter
same,reduction in FPI,"[10]; Tiikkainen, metformin 2000 mg daily, 16 weeks",~30%
same,reduction of FPI concentrations (range over studies),[10]; metformin,10-30%
